According to patent publication US9562031B1, “Phenethyldihydrobenzodioxolones and methods of use” (Sequoia Sciences, Inc., priority 2015, dated 2017):
Read-outs that look alike come from different tables or passages of the source.

Experiments:
MES-SA/Dx5 cells = assay: antiproliferation assay, MES-SA/Dx5; assay type: cell-based; settings: Homo sapiens
Experimental: (§1) For the antiproliferation assay, NCI-H460 (large cell lung carcinoma) or M14 (amelanotic melanoma) cells were grown in RPMI-1640 with 10% FBS supplemented with L-glutamine and HEPES. Cells were seeded into 96-well plates at 5×10^2 to 5×10^4 cells/well and allowed to adhere overnight; the medium was then removed. A stock solution of test compound in DMSO was diluted in medium to generate a series of working solutions. Aliquots (100 μl) of the working solutions were then added to the appropriate test wells to expose cells to the final concentrations of compound in a total volume of 100 μl. Seven different concentrations were tested, with 2-5 wells per concentration. Camptothecin was used as a positive control; wells containing vehicle without compound were used as negative controls. Plates were kept for 72 h in a 37° C., 5% CO2 incubator. After incubation, viable cells were detected with the CELLTITER 96 AQueous Non-Radioactive Cell Proliferation Assay (Promega), and IC50 values were determined using GraphPad Prism 5 software.
(§2) Antiproliferation of several of the active compounds was tested against additional cell lines.
(§3) Compound 4 was tested for antiproliferation activity against several paclitaxel-resistant human cancer cell lines.

K-562 cells = assay: antiproliferation assay, K-562; assay type: cell-based; settings: Homo sapiens, K562
Experimental: as §1, §2

[1] = test system: NCI-H460 (large cell lung carcinoma) cells; assay: antiproliferation assay (72 h, CELLTITER 96), NCI-H460; assay type: cell-based, human; settings: Homo sapiens
How it was run: (§4)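 Human M14 melanoma and NCI-H460 lung carcinoma cells in RPMI-1640/10% FBS, seeded at 5×10^2–5×10^4 cells/well and adhered overnight, then exposed to seven compound concentrations for 72 h at 37 °C. Viable cells read by CellTiter 96 AQueous (MTS); IC50 = concentration giving 50% of maximal growth inhibition.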

SK-Mel-2 cells = assay: antiproliferation assay, SK-Mel-2; assay type: cell-based; settings: Homo sapiens
Experimental: as §1, §2

MOLT-4 cells = assay: antiproliferation assay, MOLT-4; assay type: cell-based; settings: Homo sapiens
Experimental: as §1, §2

LOX-IMVI cells = assay: antiproliferation assay, LOX-IMVI; assay type: cell-based; settings: Homo sapiens
Experimental: as §1, §2

OVCAR-3 cells = assay: antiproliferation assay, OVCAR-3; assay type: cell-based; settings: Homo sapiens
Experimental: as §1, §2

[2] = test system: M14 (amelanotic melanoma) cells; assay: antiproliferation assay (72 h, CELLTITER 96), M14; assay type: cell-based, human; settings: Homo sapiens
How it was run: as §4

NCI/ADR-RES cells = assay: antiproliferation assay, NCI/ADR-RES; assay type: cell-based; settings: Homo sapiens
Experimental: as §1, §2, §3

TK-10 cells = assay: antiproliferation assay, paclitaxel-resistant TK-10; assay type: cell-based; settings: Homo sapiens
Experimental: as §1, §3

UO-31 cells = assay: antiproliferation assay, paclitaxel-resistant UO-31; assay type: cell-based; settings: Homo sapiens
Experimental: as §1, §3

ACHN cells = assay: antiproliferation assay, paclitaxel-resistant ACHN; assay type: cell-based; settings: Homo sapiens
Experimental: as §1, §3

EKVX cells = assay: antiproliferation assay, paclitaxel-resistant EKVX; assay type: cell-based; settings: Homo sapiens
Experimental: as §1, §3

HCT-15 cells = assay: antiproliferation assay, paclitaxel-resistant HCT-15; assay type: cell-based; settings: Homo sapiens
Experimental: as §1, §3

DLD-1 cells = assay: antiproliferation assay, paclitaxel-resistant DLD-1; assay type: cell-based; settings: Homo sapiens
Experimental: as §1, §3

NCI-H187 cells = assay: antiproliferation assay, NCI-H187; assay type: cell-based; settings: Homo sapiens
Experimental: as §1, §2

OVCAR-4 cells = assay: antiproliferation assay, OVCAR-4; assay type: cell-based; settings: Homo sapiens
Experimental: as §1, §2

[3] = NCI-H460, Table 3, read-out: NCI-H460 IC50

Row | SMILES | IC50 (MES-SA/Dx5 cells; MES-SA/Dx5, MES-SA/Dx5) [µM] | IC50 (K-562 cells) [µM] | IC50 (MOLT-4 cells) [µM] | IC50 (LOX-IMVI cells) [µM] | IC50 (OVCAR-3 cells) [µM] | IC50 (NCI/ADR-RES cells) [µM] | IC50 (NCI-H187 cells) [µM] | IC50 [1, 3] [µM] | IC50 ([2]; Table 3) [µM] | further results
1 | C=CC[C@H]1C[C@]2([C@@H](C)Cc3ccc(OC)c(C(N)=O)c3)OCOC2=CC1=O [Compound 29, 5-((S)-2-((3aR,5S)-5-allyl-6-oxo-3a,4,5,6-tetrahydrobenzo[d][1,3]dioxol-3a-yl)propyl)-2-methoxybenzamide] | 0.031 | 0.025 | 0.083 | 0.026 | 0.057 | 0.044 |  |  |  | IC50 ([1]; NCI-H460, Table 4, read-out: NCI-H460 IC50): 0.066 µM; IC50 (SK-Mel-2 cells): 0.0092 µM; IC50 ([2]; Table 4): 0.012 µM
2 | CC(=O)O[C@H]1C(=O)[C@@]2(C)[C@H]([C@H](OC(=O)c3ccccc3)[C@]3(O)C[C@H](OC(=O)[C@H](O)[C@@H](NC(=O)c4ccccc4)c4ccccc4)C(C)=C1C3(C)C)[C@]1(OC(C)=O)CO[C@@H]1C[C@@H]2O [paclitaxel, reference compound] |  |  |  |  |  |  |  |  |  | IC50 (MES-SA/Dx5 cells; MES-SA/Dx5, paclitaxel-resistant MES-SA/Dx5): 5 µM; IC50 (TK-10 cells): 0.08 µM; IC50 (UO-31 cells): 0.24 µM; IC50 (ACHN cells): 0.09 µM; IC50 (NCI/ADR-RES cells; paclitaxel-resistant NCI/ADR-RES): 9.6 µM; IC50 (EKVX cells): 0.15 µM; IC50 (HCT-15 cells): 0.165 µM; IC50 (DLD-1 cells): 0.09 µM
3 | C=CC[C@H]1C[C@]2([C@@H](C)Cc3ccc(OC)cc3F)OCOC2=CC1=O (relative stereo) [Compound 2, 6-allyl-7a-(1-(2-fluoro-4-methoxyphenyl)propan-2-yl)-7,7a-dihydrobenzo[d][1,3]dioxol-5(6H)-one] | 0.052 | 0.076 | 0.11 | 0.056 | 0.06 | 0.045 | 0.091 | 0.088 | 0.011 | IC50 ([1]; NCI-H460, as quoted in the pharmacokinetics text, read-out: IC50 against NCI-H460 human lung cancer cells): 0.09 µM
4 | CCC[C@H]1C[C@]2([C@H](C)Cc3cc(F)c(OC)cc3F)OCOC2=CC1=O [Compound 61, (6S,7aR)-7a-((R)-1-(2,5-difluoro-4-methoxyphenyl)propan-2-yl)-6-propyl-7,7a-dihydrobenzo[d][1,3]dioxol-5(6H)-one] | 0.084 |  | 0.12 | 0.053 |  | 0.063 |  |  |  | IC50 ([1]; NCI-H460, Table 7, read-out: NCI-H460 IC50): 0.14 µM; IC50 ([2]; Table 7): 0.017 µM; IC50 (OVCAR-4 cells): 0.037 µM
5 | C=CC[C@H]1C[C@]2([C@H](C)Cc3cc(F)c(OC)cc3F)OCOC2=CC1=O (relative stereo) [Compound 6, 6-allyl-7a-(1-(2,5-difluoro-4-methoxyphenyl)propan-2-yl)-7,7a-dihydrobenzo[d][1,3]dioxol-5(6H)-one] | 0.014 | 0.028 | 0.081 | 0.018 | 0.038 | 0.013 | 0.022 | 0.035 | 0.01 | 
